Laboratory results as given in US11518783B2, “Peptides having tetrahedral mimicking groups as inhibitors of rhomboid proteases” (priority 2016, dated 2022).
Peptide text beside a SMILES is read from it. * marks the point of attachment. CHO = C-terminal aldehyde in place of the boronate, O=C*; boroAla = C[C@H](N*)B(O)O

What was measured:
[1] = target: GlpG (Escherichia coli, UniProt P09391); details: GlpG in living E. coli cells, side-by-side comparison
[2] = test system: P. falciparum 3d7 parasites; assay: P. falciparum growth (parasitemia) on human erythrocytes, flow cytometry with acridine orange; format: cell-based; details: for inhibition of parasite growth: P. falciparum on human red blood cells
Experimental: (§1) Inhibitor potency was verified in three independent biological experiments. […] Quantification was conducted once. C.
FIG. 6A-6C illustrates RiBn cures blood stage cultures of malaria by iteratively inhibiting parasite invasion and retarding growth. A. Blood stage cultures containing 1% well synchronized schizont stage parasitized erythrocytes were cultured in the presence or absence of 0.3 mM RiB, as indicated, and analyzed at various time points via flow cytometry (acridine orange, top panels) and fluorescent microscopy (acridine orange staining, bottom panels). After 18 hours of culturing, RiBn was washed out of one replicate of the RiBn treated cultures and monitored as above, as indicated. […] C. Quantification of absolute parasitemia at various time points in blood stage parasite cultures treated with the indicated concentrations of RiBn. In a-c, growth defect was confirmed in three independent biological experiments, while the parallel washout was conducted once and is shown.
(§2) Asexual P. falciparum 3d7 parasites (kind gift of Dr David Sullivan, Johns Hopkins School of Public Health) were cultured in human erythrocytes (O-donor, purchased from Interstate Blood Bank, Inc.) under standard conditions. Sorbitol synchronization was performed ˜1/week or as needed for experiments. For invasion assays, schizont-stage parasites were magnetically purified as previously described (MACS Miltenyi Biotec) and incubated at the appropriate parasitemia (0.2% for dose-response curves) in a 96-well plate in the presence or absence of the peptide-warhead inhibitors at 1.5% hematocrit. Flow cytometry analysis for absolute parasitemia determination and growth characterization was performed by removing a small volume of culture, washing cells in 1×PBS, resuspending them in 1×PBS containing 0.1 μg/mL acridine orange and monitoring FL1/FL3 fluorescence on a FACSCalibur instrument (BD Biosciences). Methanol-fixed, acridine orange stained parasitized erythrocytes were imaged on an inverted fluorescence microscope (Nikon) with bandpass filters. Images were overlaid in Photoshop CC (Adobe). All flow cytometry data were analyzed in FlowJo.

[3] = test system: PfROM4; assay: Heterologous cell-based rhomboid cleavage assay in co-transfected HEK293 cells, EBA175 cleavage by PfROM4; parameters: species or system P. falciparum; details: western of conditioned media
Source text: (§3) FIG. 4A-F illustrates RiBn is a non-toxic, selective inhibitor of only PfROM4. A. Chemical structure of one embodiment of RiBn, a peptide of 10 aa with boronate warhead (SEQ ID NO: 3). Ac denotes an N-terminal acetyl moiety, while the C-terminal boronate warhead is on the right. B. Western blot analysis of EBA175 and AMA1 cleavage by PfROM4 in a heterologous cleavage assay. Co-transfected HEK293 cells were conditioned in the presence of absence of the indicated concentrations of RiBn. Cells transfected with AMA1 were conditioned in the presence or absence of the metalloprotease inhibitor (WI) BB-94 to reduce background cleavage by endogenous cellular proteases. N-terminal cleavage products were released into media (anti-GFP, top panels). Lysates were probed for expression of substrate (anti-GFP, middle panel) and enzyme (anti-HA, bottom panel). Quantification of PfROM4 inhibition by RiBn (right panel, mean±s.e.m.). […] Inhibition was analyzed in three independent biological experiments. […] Flow cytometry analysis (calcein AM fluorescence) of the same cells (right panels). […] For data in D and E, toxicity analyses were conducted in three independent biological experiments (once for each assay readout). […]
(§4) Cleavage of substrates and the activity of enzymes was determined in a slightly modified heterologous cleavage assay. […] Two-color quantitative westerns were converted to greyscale.

[4] = test system: human erythrocytes; details: erythrocytes cultured ~18 hours with RiBn
Experimental: B. Bright-field microscopy (top panel) and flow cytometry analysis (Forward Scatter vs Side Scatter, bottom panel) of erythrocytes cultured in the presence or absence of RiBn for ˜18 hours. Quantification was conducted once.

[5] = test system: other five rhomboid proteases known to reside on the cell surface; assay: Heterologous cell-based rhomboid cleavage assay, other cell surface rhomboid enzymes and their substrates
Source text: as §3, §4

[6] = test system: P. falciparum merozoites; assay: P. falciparum invasion assay with synchronized schizont-stage parasites; format: cell-based
Experimental: as §1, §2

[7] = LIVE/DEAD viability of RiBn-treated HEK293 cells (fluorescence microscopy and flow cytometry); format: cell-based, human; details: human, highest RiBn dose, ~24 hours, calcein AM, read-out: cell viability by flow cytometry
Source text: as §3, with “Lysates were probed for expression of substrate (anti-GFP, middle panel) and enzyme (anti-HA, bottom panel).” left out
(§5) Cell viability of RiBn-treated HEK293 cells was determined with a LIVE/DEAD Viability/Cytotoxicity Kit (Molecular Probes). Calcein AM and ethidium homodimer-1 stained cells were imaged on an inverted fluorescence microscope (Nikon) with the appropriate bandpass filters. […]

[8] = test system: HEK293 cells; assay: as above; format: cell-based, human; details: highest concentrations
Source text: as §3, with “Lysates were probed for expression of substrate (anti-GFP, middle panel) and enzyme (anti-HA, bottom panel).” left out
as §5

[9] = target: T1, human rhomboid enzyme (Homo sapiens, UniProt Q9NX52); assay: Heterologous cell-based rhomboid cleavage assay, human rhomboid enzyme; details: transfection-based assay, analyzed in parallel
T1 construct: expressed in transfected cells; host or cells: HEK293T (ATCC CRL-11268), pcDNA3.1
T1 sequence (Q9NX52 1-303): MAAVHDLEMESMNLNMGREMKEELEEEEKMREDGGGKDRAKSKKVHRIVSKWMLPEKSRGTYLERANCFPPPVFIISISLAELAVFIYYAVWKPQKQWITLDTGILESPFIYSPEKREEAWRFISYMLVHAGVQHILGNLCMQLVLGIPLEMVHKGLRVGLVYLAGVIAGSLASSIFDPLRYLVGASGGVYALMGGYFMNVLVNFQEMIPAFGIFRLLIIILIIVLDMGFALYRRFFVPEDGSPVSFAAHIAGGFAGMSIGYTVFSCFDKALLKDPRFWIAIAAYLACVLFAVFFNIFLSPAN
Source text: as §3, §4

[10] = test system: PfROM1; assay: Heterologous cell-based rhomboid cleavage assay, PfROM1; parameters: species or system P. falciparum; details: highest RiBn concentration, transfection-based assay
Source text: as §3, §4

[11] = test system: HEK293 cells; assay: Cell cycle analysis of HEK293 cells by flow cytometry (propidium iodine); format: cell-based, human; details: 24 hours

GlpG, sequence (P09391 whole entry): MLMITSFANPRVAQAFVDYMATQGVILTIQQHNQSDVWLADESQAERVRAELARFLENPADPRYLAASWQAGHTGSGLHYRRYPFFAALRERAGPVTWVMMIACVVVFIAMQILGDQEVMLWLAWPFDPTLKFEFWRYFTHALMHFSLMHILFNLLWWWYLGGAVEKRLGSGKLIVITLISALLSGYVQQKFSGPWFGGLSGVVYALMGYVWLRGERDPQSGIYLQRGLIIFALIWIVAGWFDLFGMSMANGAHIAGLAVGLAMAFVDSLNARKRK

Molecule | increase in potency relative to the aldehyde of the same tetrapeptide [1] [fold] | increase in potency relative to the chloromethylketone of the same tetrapeptide [1] [fold] | inhibition of parasite growth [2] | inhibition of EBA175 processing by PfROM4 [3] | host cell (red blood cell) viability [4] | effect on cell viability or function (translation, glycosylation, trafficking, secretion of substrates) ([5]; transfected HEK293 cells, highest RiBn concentrations) | inhibition of the other five cell surface rhomboid proteases ([5]; transfection-based assay, analyzed in parallel) | effect on other parasite stages including egress ([2]; delayed parasites through lifecycle stages) | growth of parasites that invaded in presence of RiBn ([2]; subsequent time points, versus vehicle-treated controls) | effect of washing out RiBn after the first round of invasion ([2]; washout after 18 hours, 0.3 mM) | maximal inhibition of merozoite invasion ([6]; first round of infection, flow cytometry) [%] | inhibition of merozoite invasion of red blood cells ([6]; synchronized cultures, ~24 hours) | viability [7] [%] | cell viability in fluorescence-based live/dead cell assay [8] | inhibition of the human rhomboid enzyme [9] | inhibition of PfROM1 [10] | adherence, growth, or cell cycle distribution of treated versus untreated cells [11]
Ac-VRMA-B(OH)2 | > 100 | > 400 |  |  |  |  |  |  |  |  |  |  |  |  |  |  | 
peptide-aldehyde: same peptide sequence as RiBn but replacing the boronate with an aldehyde moiety (Ac-KRFRSMQYSA-{CHO}; also: aldehyde moiety replacing the boronate, place not given here) [reference compound] |  |  | abolished inhibition | completely abolished PfROM4 inhibition |  |  |  |  |  |  |  |  |  |  |  |  | 
CSCC[C@H](NC(=O)[C@H](CO)NC(=O)[C@H](CCCNC(=N)N)NC(=O)[C@H](Cc1ccccc1)NC(=O)[C@H](CCCNC(=N)N)NC(=O)[C@H](CCCCN)NC(C)=O)C(=O)N[C@@H](CCC(N)=O)C(=O)N[C@@H](Cc1ccc(O)cc1)C(=O)N[C@@H](CO)C(=O)N[C@@H](C)B(O)O [RiBn] (Ac-KRFRSMQYS-boroAla) |  |  | dose-dependent inhibition of parasite growth | inhibited EBA175 processing by PfROM4 in a dose-dependent manner | not affecting host cell viability | no apparent effect on cell viability or function | no inhibitory effect | minimally or not affected | grew considerably slower than vehicle-treated controls | rescued parasite growth | ~50 | dose-dependent inhibition of merozoite invasion | 92.4 | no change in cell viability | no inhibitory effect | completely unaffected | no apparent change
